Patent US9089565B2, “Compositions and methods for causing neurite outgrowth” (MEDICAL RESEARCH COUNCIL, priority 2009, dated 2015)
* marks the point of attachment. Myristoyl = CCCCCCCCCCCCCC(=O)*

Key:
NgR1 [1] = test: Phosphorylation of endogenous NgR1 (upper band, immunoblotting) in RA-treated SH-SY5Y cells; type: cell-based, human; settings: incubated with BDNF in the presence of kinase inhibitor, 24 hours
Method: FIG. 1. BDNF promotes neurite outgrowth of RA-treated SH-SY5Y, and induces phosphorylation of NgR1. (A) SH-SY5Y cells were incubated with indicated reagents. Cell images were taken with phase contrast microscopy. (B) Number of cells extending neurite-like structures of more than 40 μm and total cell number were counted from images taken in (A). More than 300 cells were examined in each sample. The proportion of cells extending neurite-like structures of more than 40 μm was indicated as a percentage of total cell number. An average of three experiments is shown. Error bars indicate S. E. between experiments. Data were analysed with student's t test. (C) Whole cell extracts were prepared from RA-treated SH-SY5Y cells after incubation with or without BDNF for 24 hours, and were analysed by SDS-PAGE. Immunoblotting was performed with the indicated antibodies. (D) Whole cell extract prepared from cells treated with both RA and BDNF was incubated with the indicated reagents for 1 hour at 37° C. Immunoblotting was performed with anti-NgR1 antibody. (E) RA-treated SH-SY5Y cells were incubated with BDNF in the presence or absence of one of the following: PKC inhibitor—500 nM Gö6983 or Gö6976; PKA inhibitor—2 μM KT5720 or a PKA inhibitor peptide 14-22; or either 500 nM or 1 μM of a casein kinase inhibitor, for 24 hours. Whole cell extracts prepared from these cells were analysed by SDS-PAGE. Immunoblotting was performed with anti-NgR1 antibody.
SH-SY5Y cells were cultured in Ham's F12 medium with 10% foetal bovine serum at 37° C. in 5% CO2 and 95% air. Passage numbers between 15 and 21 were used in experiments described in this paper. Further passages induce spontaneous differentiation and cells tend to extend neurites without BDNF (data not shown). For RA treatment, the cells are seeded (20,000 cells/well) on collagen IV coated 4 well chamber slides. After 24 hours culture, medium was changed to Ham's F12 medium containing 10 μM RA and 10% foetal bovine serum. Medium was changed to fresh medium on day 3 and cells were used for experiments after 5 days culture. Encinas et al. (18) reported that RA-treated SH-SY5Y cells initiate apoptosis after withdrawal of serum only when the cells are cultured at low density. The cell density used in this paper was higher than that in the paper by Encinas et al. (18) and cell death due to depletion of serum or BDNF was not significant. In this paper, the SH-SY5Y cells treated with RA for 5 days are called RA-treated SH-SY5Y. For BDNF treatment, the RA-treated SH-SY5Y cells were washed with serum-free Ham's F12 medium and incubated with 25 ng/ml BDNF in serum-free Ham's F12 medium for 24 hours. As a control (RA alone), the RA-treated SH-SY5Y cells were incubated with serum-free Ham's F12 alone for 24 hours.
Cells were scraped off from dishes and washed with PBS twice, and then resuspended in PBS containing 0.1% Triton X100 and phosphatase inhibitor cocktail (Roche) and EDTA-free protease inhibitor cocktail (Roche). After incubation for 15 min on ice, samples were centrifuged at 14,000×g for 20 min at 4° C. The supernatants containing 30 μg of proteins were analysed by SDS-PAGE and blotted to PVDF membrane. The PVDF membrane was incubated in blocking buffer (5% skimmed milk, 0.4% Triton X-100 in PBS) for 1 hour, first antibody diluted in the blocking buffer and appropriate secondary antibody labelled with horse radish peroxidase. Bound antibodies were visualised with ECL or ECL Plus kit (GE healthcare).

NgR1 [2] = biological target: T1, NgR1 (Homo sapiens, UniProt Q9BZR6, S281D); test: Binding of OMgp to COS7 cells over-expressing NgR1; settings: 281S/D mutant NgR1
T1 construct: The cDNAs of NgR1 (NM 023004, Nt. 184-1543); expressed in transfected cells; host or cells: COS7
T1 sequence (Q9BZR6 27-447 S281D): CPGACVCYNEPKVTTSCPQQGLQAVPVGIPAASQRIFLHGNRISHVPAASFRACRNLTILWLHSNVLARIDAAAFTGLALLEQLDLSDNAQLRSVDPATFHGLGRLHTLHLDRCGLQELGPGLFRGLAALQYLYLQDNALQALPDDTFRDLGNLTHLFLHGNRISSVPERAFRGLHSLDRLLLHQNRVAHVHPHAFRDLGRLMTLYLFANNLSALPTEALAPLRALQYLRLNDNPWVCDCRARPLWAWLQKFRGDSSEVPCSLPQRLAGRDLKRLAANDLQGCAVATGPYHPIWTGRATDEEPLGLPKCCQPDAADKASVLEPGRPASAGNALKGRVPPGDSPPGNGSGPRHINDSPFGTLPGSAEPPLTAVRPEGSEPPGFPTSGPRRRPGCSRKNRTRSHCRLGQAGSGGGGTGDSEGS
Method: (§1) FIG. 3. CK2 phosphorylates NgR1, and inhibits binding of the myelin-associated proteins to NgR1. (A) Myc-tagged wild type, 281S/A or 281S/D mutant NgR1 were over-expressed in COS7 cells. The over-expressed cells were incubated with either the combination of ATP and CK2, or NEP1-40 for 30 min at 37° C. After washing with PBS, cells were incubated with Hisx6-tagged Nogo-GFP for 3 hours at 4° C. The cells were fixed and immunofluorescence was performed with anti-Myc and anti-GFP antibodies. (B) COS7 cells over-expressing Myc-tagged wild type NgR1 were treated as described in (A). Proteins were extracted and the Myc-tagged NgR1 was immunoprecipitated with anti-Myc antibody. Co-precipitated Hisx6-tagged Nogo-GFP was detected by anti-GFP antibody. […] The biotinylated proteins were fractionated and analysed by SDS-PAGE. Biotinylated NgR1-Myc was detected with anti-Myc. antibody. […] Myc-tagged proteins were immunoprecipitated and analysed with SDS-PAGE. […]
(§2) After treatment with or without CK2, COS7 cells over-expressing wild type or mutant NgR were incubated with Hisx6 tagged Nogo-GFP (10 μg/ml), HA-MAG (50 μg/ml) or Hisx6 tagged OMgp (10 μg/ml) in PBS for 3 hours at 4° C. […] Biotinylated proteins were precipitated with streptavidin beads and were analysed by SDS-PAGE. Each sample fractionated from 5×10^6 cells was analysed by SDS-PAGE.

NgR1 [3] = biological target: T1, NgR1; test: Binding of MAG to COS7 cells over-expressing NgR1; settings: 281S/D mutant NgR1
Method: as §1, §2

## CCCCCCOC(=O)[C@]1(O)C[C@@H]2O[C@@]1(C)n1c3ccccc3c3c4c(c5c6ccccc6n2c5c31)C(=O)NC4 [KT 5720]
NgR1 [1]
  level of the upper band of NgR1: Neither PKC inhibitors Gö6983 and Gö6976, nor PKA inhibitors KT 5720 and a PKA inhibitor peptide, show effects

## Brc1c(Br)c(Br)c2[nH]nnc2c1Br [CK2 inhibitor, 4,5,6,7-Tetrabromo-2-azabenzimidazole]
NgR1 [1]
  level of the upper band of NgR1: decreased the upper band

## Cn1c2ccccc2c2c3c(c4c5ccccc5n(CCC#N)c4c21)CNC3=O [Gö6976]
NgR1 [1]
  level of the upper band of NgR1: Neither PKC inhibitors Gö6983 and Gö6976, nor PKA inhibitors KT 5720 and a PKA inhibitor peptide, show effects

## PKA inhibitor peptide: myristoylated PKA inhibitor peptide 14-22 amide, purchased from Merck (Myristoyl-SGRTGRRNA-NH2; SMILES CCCCCCCCCCCCCC(=O)N[C@@H](CO)C(=O)NCC(=O)N[C@@H](CCCNC(=N)N)C(=O)N[C@H](C(=O)NCC(=O)N[C@@H](CCCNC(=N)N)C(=O)N[C@@H](CCCNC(=N)N)C(=O)N[C@@H](CC(N)=O)C(=O)N[C@@H](C)C(N)=O)[C@@H](C)O; UniProt P61925 14-22, looked up, fragment)
NgR1 [1]
  level of the upper band of NgR1: Neither PKC inhibitors Gö6983 and Gö6976, nor PKA inhibitors KT 5720 and a PKA inhibitor peptide, show effects

## COc1ccc2c(c1)c(C1=C(c3c[nH]c4ccccc34)C(=O)NC1=O)cn2CCCN(C)C [Gö6983]
NgR1 [1]
  level of the upper band of NgR1: Neither PKC inhibitors Gö6983 and Gö6976, nor PKA inhibitors KT 5720 and a PKA inhibitor peptide, show effects

B1: OMgp: oligodendrocyte myelin glycoprotein, His-tagged, purchased from R&D (protein, UniProt P23515 25-417, looked up)
Oligodendrocyte-myelin …: ICPLQCICTERHRHVDCSGRNLSTLPSGLQENIIHLNLSYNHFTDLHNQLTQYTNLRTLDISNNRLESLPAHLPRSLWNMSAANNNIKLLDKSDTAYQWNLKYLDVSKNMLEKVVLIKNTLRSLEVLNLSSNKLWTVPTNMPSKLHIVDLSNNSLTQILPGTLINLTNLTHLYLHNNKFTFIPDQSFDQLFQLQEITLYNNRWSCDHKQNITYLLKWMMETKAHVIGTPCSTQISSLKEHNMYPTPSGFTSSLFTVSGMQTVDTINSLSVVTQPKVTKIPKQYRTKETTFGATLSKDTTFTSTDKAFVPYPEDTSTETINSHEAAAATLTIHLQDGMVTNTSLTSSTKSSPTPMTLSITSGMPNNFSEMPQQSTTLNLWREETTTNVKTPLPS
modifications: His tag
notes: oligodendrocyte myelin glycoprotein, His-tagged, purchased from R&D
NgR1 [2]
  binding of ligand to cells: Neither OMgp nor MAG bound

B2: MAG: human myelin-associated glycoprotein, HA-tagged, purified from COS7 conditioned medium (protein)
chain: GHWGAWMPSSISAFEGTCVSIPCRFDFPDELRPAVVHGVWYFNSPYPKNYPPVVFKSRTQVVHESFQGRSRLLGDLGLRNCTLLLSNVSPELGGKYYFRGDLGGYNQYTFSEHSVLDIVNTPNIVVPPEVVAGTEVEVSCMVPDNCPELRPELSWLGHEGLGEPAVLGRLREDEGTWVQVSLLHFVPTREANGHRLGCQASFPNTTLQFEGYASMDVKYPPVIVEMNSSVEAIEGSHVSLLCGADSNPPPLLTWMRDGTVLREAVAESLLLELEEVTPAEDGVYACLAENAYGQDNRTVGLSVMYAPWKPTVNGTMVAVEGETVSILCSTQSNPDPILTIFKEKQILSTVIYESELQLELPAVSPEDDGEYWCVAENQYGQRATAFNLSVEFAPVLLLESHCAAARDTVQCLCVVKSNPEPSVAFELPSRNVTVNESEREFVYSERSGLVLTSILTLRGQAQAPPRVICTARNLYGAKSLELPFQG
NgR1 [3]
  binding of ligand to cells: Neither OMgp nor MAG bound
